Results taken from article PMC10459042, “Synthesis of 1,2,3-Triazole-Containing Methoxylated Cinnamides and Their Antileishmanial Activity against the Leishmania braziliensis Species” (Pharmaceuticals, 2023).

Experiments:
[1] = test system: L. braziliensis promastigotes infecting murine macrophages; experiment: Inhibition of infection (parasites pre-incubated with compound, then used to infect macrophages); type: cell-based, Leishmania braziliensis; conditions: for Number of Amastigotes per Cell using pre-incubated parasites: untreated 8.9; for Percentage of Infected Macrophages Using Pre-Incubated Parasites: untreated 90.5
Procedure: To evaluate the inhibition of infection, promastigotes (5 × 10^6 cells) were first incubated with Compound 28 or AmpB (0, 1.0, 2.5 and 5.0 µg/mL in both cases) for 4 h at 24 °C; these were then used to infect murine macrophages (at a ratio of 10 parasites per macrophage) and incubated for 24 h at 37 °C in 5% CO2. Then, cells were fixed with 4% paraformaldehyde, washed, and stained with Giemsa. The percentage of infected macrophages and the number of recovered amastigotes were determined by counting 200 cells, in triplicate, using an optical microscope.

[2] = test system: L. braziliensis-infected macrophages; experiment: ROS levels in Leishmania-infected macrophages (H2DCFDA); type: cell-based, Leishmania braziliensis; conditions: 5.0 µg/mL, 48 h at 37 °C
Procedure: Macrophages (1 × 10^6 cells/mL) were incubated in 96-well culture plates (Nunc, Nunclon, Roskilde, Denmark) and infected with L. braziliensis promastigotes (at a ratio of 10 parasites per cell). The infected macrophages were either left untreated or treated with Compound 28 (at a concentration of 5.0 µg/mL) for 48 h at 37 °C in 5% CO2. The cells were washed with PBS and incubated with 20 μmol/L H2DCFDA (Molecular Probes, Eugene, Oregon, USA) for 30 min in the dark. The fluorescence intensity was measured using a spectrofluorometer (FLx800; BioTek Instruments, Winooski, VT, USA) at 485 nm excitation and 528 nm emission. As a positive control, the infected macrophages were incubated with H2O2 at a concentration of 0.02 µg/mL (0.5 µmol/L). Parasites that were untreated with Compound 28 and not labeled with the fluorescent probe were used as the sample blank.
Figure 3 Production of ROS in L. braziliensis-infected macrophages treated with Compound 28. Leishmania braziliensis-infected macrophages (1 × 10^5 cells) were incubated with Compound 28 (5.0 µg/mL) for 48 h at 37 °C in a 5% CO2 environment. Subsequently, 2′,7′-dichlorodihydrofluorescein diacetate (H2DCFDA, 9.7 μg/mL) was added for 30 min under dark conditions. The fluorescence levels were measured in a spectrofluorometer at 485/528 nm. H2O2 (0.5 µmol/L) was used as a positive control. […]

[3] = test system: Leishmania braziliensis promastigotes; experiment: Depolarization of mitochondrial membrane potential (ΔΨm), JC-1; type: cell-based; conditions: one IC50 value, 48 h at 24 °C; non-treated parasites 7.2
Procedure: Leishmania braziliensis promastigotes (1 × 10^7 cells/mL) were treated with compound 28 (at a concentration corresponding to one IC50 value) for 48 h at 24 °C. The parasites (3 × 10^6 cells/mL) were then labeled with JC-1 (5 µg/mL, Sigma-Aldrich, St. Louis, MO, USA) for 30 min at 37 °C. After washing twice with PBS to remove the non-internalized dye, the samples were added to a black 96-well plate, and the ΔΨm was analyzed in a spectrofluorometer (FLx800, BioTek Instruments, Winooski, VT, USA) with an excitation filter of 485 nm and emission wavelength of 528 nm and […] to measure the green and red fluorescence, respectively. The ΔΨm was determined using the ratio between the red/green fluorescence intensity. Parasites that were exposed to 1.3 µg/mL (5.0 µmol/L) of FCCP (Sigma-Aldrich, St. Louis, MO, USA) for 20 min were used as a control. […]
Figure 4 ΔΨm and ROS production in Leishmania after exposure to Compound 28. […] (A) Depolarization of ΔΨm was evaluated using the JC-1 fluorescent probe. Samples were analyzed fluorometrically, and the results are expressed as the ratio of red/green fluorescence. […] (B) ROS production was evaluated using the H2DCFDA probe. The fluorescence intensity was measured by fluorimetry, and the results are expressed as the fold increase in the ROS level compared with the non-treated control. […]

[4] = test system: L. braziliensis promastigotes; experiment: ROS production in promastigotes (H2DCFDA); type: cell-based, Leishmania braziliensis; conditions: one IC50 value, 48 h at 24 °C
Procedure: After treatment with Compound 28 (at a concentration corresponding to one IC50 value) for 48 h at 24 °C, L. braziliensis promastigotes were washed with PBS, and the parasite concentration was adjusted to 3 × 10^6 cells per well. H2DCFDA (Sigma-Aldrich, St. Louis, MO, USA) was then added and incubated for 30 min in the dark, and samples were read in a fluorometric microplate reader (FLx800, BioTek Instruments, Winooski, VT, USA) with excitation and emission wavelengths of 485 and 528 nm, respectively. Parasites that were untreated or treated with Compound 28 and not labeled with the fluorescent probe were used as the blank.
Figure 4 ΔΨm and ROS production in Leishmania after exposure to Compound 28. Leishmania braziliensis promastigotes were not exposed (negative control) or exposed to Compound 28 (at a concentration corresponding to the IC50 value) for 48 h. (A) Depolarization of ΔΨm was evaluated using the JC-1 fluorescent probe. Samples were analyzed fluorometrically, and the results are expressed as the ratio of red/green fluorescence. FCCP ([…]) was used as a positive control. (B) ROS production was evaluated using the H2DCFDA probe. The fluorescence intensity was measured by fluorimetry, and the results are expressed as the fold increase in the ROS level compared with the non-treated control. H2O2-treated parasites were used as a positive control. […]

[5] = parasites pre-incubated with 1.0 µg/mL at 24 °C
[6] = parasites pre-incubated with 2.5 µg/mL at 24 °C
[7] = parasites pre-incubated with 5.0 µg/mL at 24 °C

CCN(CC)c1ccc2cc(-n3cc(CNC(=O)/C=C/c4ccc(OC)c(OC)c4)nn3)c(=O)oc2c1 [Compound 28, N-((1-(7-(diethylamino)-2-oxo-2H-chromen-3-yl)-1H-1,2,3-triazol-4-yl)methyl) (3,4-dimethoxy) cinnamide]
Number of Amastigotes per Cell using pre-incubated parasites [1, 5]: 5.8 | Percentage of Infected Macrophages Using Pre-Incubated Parasites [1, 5]: 84.5% | Number of Amastigotes per Cell using pre-incubated parasites [1, 6]: 4.9 | Percentage of Infected Macrophages Using Pre-Incubated Parasites [1, 6]: 80.5% | Number of Amastigotes per Cell using pre-incubated parasites [1, 7]: 3.6 | Percentage of Infected Macrophages Using Pre-Incubated Parasites [1, 7]: 71.5% | Increase in ROS levels in treated and infected cells compared with untreated cells [2]: 44.1% | ΔΨm, JC-1 ratio of red/green fluorescence [3]: 4.0 | Fold increase in ROS production compared with untreated parasites [4]: 2.5 fold
